Data from patent US8343475B2, “Small cationic antimicrobial peptides” (priority 2006, dated 2013).
≈ marks a conversion by molar mass, not a printed value. Residues, ends and D or L forms follow the SMILES beside them.

Key:
[1] = test system: IL8 release by human PBMC; test: Chemokine induction in PBMC (capture ELISA); type: cell-based; conditions: 20 or 100 μg/ml peptide, 24 hours (FIG. 14)
Experimental: FIG. 14. Induction of IL8 release by 7.5×10^5 human PBMC in response to treatment with 20 or 100 μg/ml of different peptides for 24 hours.
Venous blood (20 ml) from healthy volunteers was collected in Vacutainer® collection tubes containing sodium heparin as an anticoagulant (Becton Dickinson, Mississauga, ON) in accordance with UBC ethical approval and guidelines. Blood was diluted 1:1 with complete RPMI 1640 medium and separated by centrifugation over a Ficoll-Paque® Plus (Amersham Biosciences, Piscataway, N.J., USA) density gradient. White blood cells were isolated from the buffy coat, washed twice in RPMI 1640 complete medium, and the number of peripheral blood mononuclear cells (PBMC) was determined by trypan blue exclusion. PBMC (5×10^5) were seeded into 12-well tissue culture dishes (Falcon; Becton Dickinson) at 0.75 to 1×10^6 cells/ml at 37° C. in 5% CO2. The above conditions were chosen to mimic conditions for circulating blood monocytes entering tissues at the site of infection via extravasation.
Following incubation of the cells under various treatment regimens, the tissue culture supernatants were centrifuged at 1000×g for 5 min, then at 10,000×g for 2 min to obtain cell-free samples. Supernatants were aliquoted and then stored at −20° C. prior to assay for various chemokines by capture ELISA (eBioscience and BioSource International Inc., CA, USA respectively)

[2] = test system: CXCL1 (Gro-α) release by human PBMC; test: Chemokine induction in PBMC (capture ELISA); type: cell-based; conditions: background (196) subtracted
Summary of the method: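 Human PBMC from healthy donors' heparinised blood (Ficoll), 7.5×10^5 cells treated with 20 or 100 μg/ml peptide for 24 h at 37° C, 5% CO2. Cell-free supernatants assayed for CXCL1 by capture ELISA.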

[3] = test system: MCP-3 release by human PBMC; test: Chemokine induction in PBMC (capture ELISA); type: cell-based; conditions: background (6) subtracted
Summary of the method: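 Human PBMC from healthy donors (Ficoll-isolated), 7.5×10^5 cells at 0.75–1×10^6 cells/ml, treated with peptides at 20 or 100 μg/ml for 24 h at 37° C, 5% CO2. MCP-3 in cell-free supernatants measured by capture ELISA.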

[4] = test system: MCP-1 release by human PBMC; test: Chemokine induction in PBMC (capture ELISA); type: cell-based; conditions: background (204) subtracted
Summary of the method: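 Heparinized blood from healthy volunteers; Ficoll-isolated human PBMC (7.5×10^5) treated with peptides at 20 or 100 μg/ml for 24 hours at 37° C, 5% CO2. Cell-free supernatants assayed for MCP-1 by capture ELISA.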

[5] = test system: Staphylococcus aureus ATCC25923; type: cell-based; conditions: ATCC25923
Summary of the method: (§1)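 Broth microdilution in Mueller Hinton medium; peptides serially diluted at 10× in 0.01% acetic acid with 0.2% BSA, then added to polypropylene plates. Inoculum 2-7×10^5 CFU/ml from overnight culture, incubated overnight at 37° C. MIC = lowest concentration showing no growth.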

[6] = test system: lab isolate of Candida albicans; type: cell-based; conditions: lab isolate of
Summary of the method: as §1

[7] = test system: clinical isolate of Staphylococcus epidermidis; type: cell-based; conditions: clinical isolate of
Summary of the method: as §1

[8] = test system: Enterococcus faecalis ATCC29212; type: cell-based; conditions: ATCC29212
Summary of the method: as §1

Escherichia coli UB1005 = type: cell-based; conditions: UB1005
Summary of the method: as §1

[9] = test system: wild-type Salmonella enterica ssp. typhimurium; type: cell-based
Summary of the method: as §1

[10] = test system: Pseudomonas aeruginosa PAO1 strain H103; type: cell-based
Summary of the method: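 Modified broth microdilution MIC in Mueller Hinton medium, peptides diluted in 0.01% acetic acid/0.2% BSA, polypropylene plates. Inoculum 2-7×10^5 CFU/ml, overnight at 37 °C; MIC is the lowest concentration with no visible growth.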

[11] = test system: multidrug resistant Pseudomonas maltophilia ATCC13637; type: cell-based
Summary of the method: (§2)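 Broth microdilution in Mueller Hinton medium, peptides serially diluted in 0.01% acetic acid with 0.2% BSA in polypropylene plates. Inoculum 2-7×10^5 CFU/ml, incubated overnight at 37° C. MIC is the lowest concentration with no visible growth.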

[12] = test system: ESBL E. coli clinical strain 64771; type: cell-based; conditions: ESBL clinical strain 64771
Summary of the method: as §2

[13] = test system: ESBL Klebsiella pneumonia clinical strain 63575; type: cell-based
Summary of the method: as §2

[14] = test system: Liverpool Epidemic Strains; type: cell-based, Pseudomonas aeruginosa
Summary of the method: (§3)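 Modified broth microdilution in Mueller Hinton medium, peptides serially diluted in 0.01% acetic acid with 0.2% BSA in polypropylene plates. Inoculum 2-7×10^5 CFU/ml, overnight incubation at 37° C; MIC taken as lowest concentration with no visible growth.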

[15] = test system: clinical isolates of MRSA; type: cell-based, Staphylococcus aureus
Summary of the method: as §3

ESBL E. cloacae = type: cell-based, Enterobacter cloacae
Summary of the method: as §3

S. aureus = test: Mouse model of aggressive bacterial infection (intraperitoneal); type: in vivo; conditions: 1.6×10^10 CFU IP; 4 mg/kg peptide IP four hours post infection; total infection time 24 hours; saline controls 100% death
Experimental: FIG. 10. Ability of new antimicrobial peptides HHC-10 and HHC-36 to protect mice against Staph aureus infections. Bacterial loads in the peritoneal lavage from individual mice after 24 hours of infection are shown (solid circles). Dead animals were assigned the highest colony forming unit (CFU) count obtained in the experiment. The solid line represents the arithmetic mean for each group.
FIG. 18. […] Mice were treated with 1.6×10^10 CFU of S. aureus intraperitoneally. Four hours post infection they received a dose of 8 mg/kg peptide IP. The infection was allowed to progress for 4 or 24 hours after which mice were euthanaised and plate counts of staphylococci surviving in the peritoneum were determined. Bacterial loads in the peritoneal lavage from individual mice after 24 hours of infection are shown (solid circles). The solid line represents the arithmetic mean for each group.
FIG. 19. […] Mice were treated with 1.6×10^10 CFU of S. aureus intraperitoneally. Four hours post infection they received a dose of 8 mg/kg peptide IP. The infection was allowed to progress for 4 or 24 hours after which mice were euthanaised and plate counts of staphylococci surviving in the peritoneum were determined. Bacterial loads in the peritoneal lavage from individual mice after 24 hours of infection are shown (solid circles). The solid line represents the arithmetic mean for each group.
To further confirm this, a mouse model of aggressive bacterial infection, widely used to assess antibiotic efficacy, was utilized. Mice were treated with 1.6×10^10 CFU IP. Four hours post infection they received a dose of 4 mg/kg peptide IP. The infection was allowed to progress for 20 more hours, for a total infection time of 24 hours.
These immunomodulatory activities led to protection against infections by S. aureus. Briefly a mouse model of aggressive bacterial infection, widely used to assess antibiotic efficacy, was utilized. […] The infection was allowed to progress for 4 or 24 hours after which mice were euthanaised and plate counts of staphylococci surviving in the peritoneum were determined.

[16] = test system: VRE Vancomycin resistant Enterococcus faecalis clinical isolates; type: cell-based
Summary of the method: as §2

[17] = test system: multidrug resistant Brazilian clinical isolates of P. aeruginosa; type: cell-based, Pseudomonas aeruginosa
Summary of the method: as §3

LDH release = type: cell-based; design: dose or concentration left out as unconfirmed
Experimental: In addition the following peptides were tested for LDH release: 1002, 1005, 1012, 1010, 1013, 1018, 1020, 1026, 1028, 1032, 1033, 1035, and 1037.

SMILES | Chemokine induction Gro-α ([2]; 20 μg/ml peptide) | Chemokine induction Gro-α ([2]; 100 μg/ml peptide) | Chemokine induction MCP-3 ([3]; 20 μg/ml peptide) | Chemokine induction MCP-3 ([3]; 100 μg/ml peptide) | Chemokine induction MCP-1 ([4]; 20 μg/ml peptide) | Chemokine induction MCP-1 ([4]; 100 μg/ml peptide) | MIC [11] | MIC [12] | MIC [13] | MIC [14] | MIC [15] | MIC [5] | MIC [8] | MIC (ESBL E. cloacae) | further results
CC(C)[C@H](NC(=O)[C@H](CCCNC(=N)N)NC(=O)[C@H](Cc1ccccc1)NC(=O)[C@H](CCCNC(=N)N)NC(=O)[C@H](Cc1ccccc1)NC(=O)[C@H](CCCNC(=N)N)NC(=O)[C@H](Cc1ccccc1)NC(=O)[C@H](CCC(N)=O)NC(=O)[C@@H](N)Cc1c[nH]cn1)C(=O)N[C@@H](CCCNC(=N)N)C(=O)N[C@@H](CCCNC(=N)N)C(=O)N[C@@H](CCCCN)C(N)=O [HH13, HQFRFRFRVRRK] (H-HQFRFRFRVRRK-NH2; N-terminus assumed) | 15 pg/mL | 42 pg/mL | 40 pg/mL | 54 pg/mL | 1 pg/mL | 0 pg/mL | – | – | – | – | – | – | – | – | induction of IL8 [1]: strongest abilities to induce this chemokine; MIC S. aureus [5]: 12 µg/mL (≈ 6.93 µM); MIC C. albicans [6]: >50 µg/mL; MIC S. epi. [7]: 6 µg/mL (≈ 3.46 µM); MIC E. faecalis [8]: >50 µg/mL; MIC E. coli (Escherichia coli UB1005): 25 µg/mL (≈ 14.4 µM); MIC S. typhi [9]: 12 µg/mL (≈ 6.93 µM); MIC P. aerug ([10]; PAO1): 50 µg/mL (≈ 28.9 µM)
N=C(N)NCCC[C@H](NC(=O)[C@H](CCCNC(=N)N)NC(=O)[C@H](Cc1c[nH]c2ccccc12)NC(=O)[C@H](Cc1c[nH]c2ccccc12)NC(=O)[C@H](CCCCN)NC(=O)[C@H](Cc1c[nH]c2ccccc12)NC(=O)[C@H](Cc1c[nH]c2ccccc12)NC(=O)[C@H](CCCNC(=N)N)NC(=O)[C@@H](N)CCCCN)C(N)=O [HHC36, KRWWKWWRR] (H-KRWWKWWRR-NH2; N-terminus assumed) | 19 pg/mL | -8 pg/mL | 1 pg/mL | 1 pg/mL | 38 pg/mL | 168 pg/mL | 1.4 µM (≈ 2.08 µg/mL) | 3 µM (≈ 4.46 µg/mL) | 22 µM (≈ 32.7 µg/mL) | 0.3 µM (≈ 0.446 µg/mL) | 1.4 µM (≈ 2.08 µg/mL) | 3 µM (≈ 4.46 µg/mL) | 43 µM (≈ 63.9 µg/mL) | 11 µM (≈ 16.4 µg/mL) | mice protected (S. aureus): 60%
CC[C@H](C)[C@H](NC(=O)[C@H](CC(N)=O)NC(=O)[C@H](CCCCN)NC(=O)[C@H](Cc1ccccc1)NC(=O)[C@H](CCCNC(=N)N)NC(=O)[C@H](Cc1c[nH]c2ccccc12)NC(=O)[C@H](C)N)C(=O)N[C@@H](CCCNC(=N)N)C(=O)N[C@@H](CCCCN)C(N)=O [HHC126, AWRFKNIRK] (H-AWRFKNIRK-NH2; N-terminus assumed) | 75 pg/mL | -2 pg/mL | 3 pg/mL | 0 pg/mL | 314 pg/mL | 104 pg/mL | >223 µM | 223 µM (≈ 272 µg/mL) | >223 µM | 111 µM (≈ 135 µg/mL) | >223 µM | 223 µM (≈ 272 µg/mL) | >223 µM | >223 µM | MIC [16]: >223 µM; MIC [17]: >223 µM; antimicrobial activity against P. aeruginosa PAO1 (in words) ([10]; laboratory strain P. aeruginosa PAO1): did not return any generally active substances
CC[C@H](C)[C@H](NC(=O)[C@H](CCCNC(=N)N)NC(=O)[C@@H](NC(=O)[C@H](C)NC(=O)[C@@H](NC(=O)[C@@H](NC(=O)[C@H](CC(C)C)NC(=O)[C@H](CCCNC(=N)N)NC(=O)[C@@H](N)C(C)C)[C@@H](C)CC)C(C)C)C(C)C)C(=O)N[C@@H](Cc1c[nH]c2ccccc12)C(=O)N[C@@H](CCCNC(=N)N)C(=O)N[C@@H](CCCNC(=N)N)C(N)=O [compound 1018, VRLIVAVRIWRR] (H-VRLIVAVRIWRR-NH2) | – | – | – | – | – | – | – | – | – | – | – | – | – | – | LDH release (LDH release): None showed any LDH release
